# Laboratory results published in US9302999B2, “Substituted triazoles as herbicides” (E. I. DU PONT DE NEMOURS AND COMPANY, priority 2012, dated 2016).
# Legend:
# Format in all cases: in vivo
# [1] = system: field poppy (Papaver rhoeas); assay: Test D pre-/postemergence: field poppy
# Description: (§1) Seeds of plant species selected from bluegrass (annual bluegrass, Poa annua), blackgrass (Alopecurus myosuroides), canarygrass (Phalaris minor), chickweed (common chickweed, Stellaria media), galium (catchweed bedstraw, Galium aparine), bromegrass, downy (downy bromegrass, Bromus tectorum), field poppy (Papaver rhoeas), field violet (Viola arvensis), foxtail, green (green foxtail, Setaria viridis), deadnettle (henbit deadnettle, Lamium amplexicaule), ryegrass, Italian (Italian ryegrass, Lolium multiflorum), kochia (Kochia scoparia), lambsquarters (Chenopodium album), oilseed rape (Brassica napus), pigweed (Amaranthus retroflexus), Russian thistle (Salsola iberica), chamomile (scentless chamomile, Matricaria inodora), speedwell (bird's-eye speedwell, Veronica persica), barley, spring (spring barley, Hordeum vulgare), wheat, spring (spring wheat, Triticum aestivum), buckwheat, wild (wild buckwheat, Polygonum convolvulus), mustard, wild (wild mustard, Sinapis arvensis), oat, wild (wild oat, Avena fatua), radish, wild (wild radish, Raphanus raphanistrum), windgrass (Apera spica-venti), barley, winter (winter barley, Hordeum vulgare), and wheat, winter (winter wheat, Triticum aestivum) were planted into a silt loam soil and treated preemergence with test chemicals formulated in a non-phytotoxic solvent mixture which included a surfactant. At the same time, these same crop and weed species were planted in pots containing the planting medium comprising spaghnum peat moss, vermiculite, wetting agent and starter nutrients and treated with postemergence applications of the test chemicals formulated in the same manner. Plants ranged in height from 2 to 18 cm (1- to 4-leaf stage).
# (§2) Treated plants and controls were maintained in a controlled growth environment for 14 to 21 days after which time all species were compared to controls and visually evaluated. Plant response ratings, summarized in Table D, are based on a scale of 0 to 100 where 0 is no effect and 100 is complete control. A dash (-) response means no test result.
# [2] = system: barley, winter (winter barley, Hordeum vulgare); assay: Test D pre-/postemergence: barley, winter
# Description: as §1, §2
# [3] = system: bluegrass (annual bluegrass, Poa annua); assay: Test D pre-/postemergence: bluegrass
# Outline: (§3)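 Visual control ratings (0–100) after 14–21 days, controlled environment. Preemergence on silt loam; postemergence on 2–18 cm plants.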
# [4] = system: windgrass (Apera spica-venti); assay: Test D pre-/postemergence: windgrass
# Outline: as §3
# [5] = system: oilseed rape (Brassica napus); assay: Test D pre-/postemergence: oilseed rape
# Outline: as §3
# [6] = system: bromegrass, downy (downy bromegrass, Bromus tectorum); assay: Test D pre-/postemergence: bromegrass, downy
# Outline: as §3
# [7] = system: foxtail, green (green foxtail, Setaria viridis); assay: Test C pre-/postemergence: foxtail, green
# Description: Seeds of plant species selected from blackgrass (Alopecurus myosuroides), bromegrass, downy (downy bromegrass, Bromus tectorum), foxtail, green (green foxtail, Setaria viridis), ryegrass, Italian (Italian ryegrass, Lolium multiflorum), winter wheat (Triticum aestivum), wild oat (Avena fatua), galium (catchweed bedstraw, Galium aparine), bermudagrass (Cynodon dactylon), surinam grass (Brachiaria decumbens), cocklebur (common cocklebur, Xanthium strumarium), corn (Zea mays), large crabgrass (Digitaria sanguinalis), woolly cupgrass (Eriochloa villosa), foxtail, giant (giant foxtail, Setaria faberii), goosegrass (Eleusine indica), johnsongrass (Sorghum halepense), kochia (Kochia scoparia), lambsquarters (Chenopodium album), morningglory (Ipomoea coccinea), nightshade (eastern black nightshade, Solanum ptycanthum), nutsedge, yellow (yellow nutsedge, Cyperus esculentus), pigweed (Amaranthus retroflexus), ragweed (common ragweed, Ambrosia elation), soybean (Glycine max), common (oilseed) sunflower (Helianthus annuus), Russian thistle (Salsola kali) and velvetleaf (Abutilon theophrasti) were planted into a blend of loam soil and sand and treated preemergence with test chemicals formulated in a non-phytotoxic solvent mixture which included a surfactant.
# At the same time, plants selected from these crop and weed species and also barley (winter barley, Hordeum vulgare), canarygrass (Phalaris minor), chickweed (common chickweed, Stellaria media) windgrass (Apera spica-venti) and deadnettle (henbit deadnettle, Lamium amplexicaule) were planted in pots containing Redi-Earth® planting medium (Scotts Company, 14111 Scottslawn Road, Marysville, Ohio 43041) comprising spaghnum peat moss, vermiculite, wetting agent and starter nutrients and treated with postemergence applications of test chemicals formulated in the same manner. Plants ranged in height from 2 to 18 cm (1- to 4-leaf stage) for postemergence treatments.
# Treated plants and controls were maintained in a greenhouse for 13 to 15 days, after which time all species were compared to controls and visually evaluated. Plant response ratings, summarized in Table C, are based on a scale of 0 to 100 where 0 is no effect and 100 is complete control. A dash (-) response means no test result.
# [8] = Postemergence, 31 g ai/ha, scale 0 to 100 (0 no effect, 100 complete control)
# [9] = Postemergence, 62 g ai/ha, scale 0 to 100 (0 no effect, 100 complete control)
# [10] = Postemergence, 125 g ai/ha, scale 0 to 100, 0 no effect, 100 complete control
# [11] = Postemergence, 8 g ai/ha, scale 0 to 100
# [12] = Postemergence, 16 g ai/ha, scale 0 to 100
# [13] = Postemergence, 31 g ai/ha, scale 0 to 100
# [14] = Preemergence, 31 g ai/ha, scale of 0 to 100, 0 is no effect, 100 is complete control
# [15] = Preemergence, 62 g ai/ha, scale of 0 to 100, 0 is no effect, 100 is complete control
# [16] = Preemergence, 125 g ai/ha, scale 0 to 100, 0 no effect, 100 complete control
# [17] = Preemergence, 250 g ai/ha, scale 0 to 100, 0 no effect, 100 complete control
# [18] = Preemergence, 16 g ai/ha, scale 0 to 100 (0 no effect, 100 complete control)
# [19] = Preemergence, 31 g ai/ha, scale 0 to 100 (0 no effect, 100 complete control)
# [20] = Preemergence, 62 g ai/ha, scale 0 to 100
# [21] = Preemergence, 125 g ai/ha, scale 0 to 100
compound,measurement,setting,value
Cc1nn(-c2ccc(F)c(F)c2)nc1Oc1ccnc(C(F)(F)F)c1 [Compound 145],Plant response rating: Field Poppy,[1]; [8],100
same,Plant response rating: Field Poppy,[1]; [9],100
same,Plant response rating: Field Poppy,[1]; [10],100
same,"Plant response rating, Field Poppy",[1]; [11],25
same,"Plant response rating, Field Poppy",[1]; [12],75
same,"Plant response rating: Barley, Winter",[2]; [8],5
same,"Plant response rating: Barley, Winter",[2]; [9],10
same,"Plant response rating: Barley, Winter",[2]; [10],20
same,"Plant response rating, Barley, Winter",[2]; [11],0
same,"Plant response rating, Barley, Winter",[2]; [12],5
same,Plant response rating: Bluegrass,[3]; [8],20
same,Plant response rating: Bluegrass,[3]; [9],25
same,Plant response rating: Bluegrass,[3]; [10],40
same,"Plant response rating, Bluegrass",[3]; [11],0
same,"Plant response rating, Bluegrass",[3]; [12],0
same,Plant response rating: Windgrass,[4]; [9],60
same,Plant response rating: Windgrass,[4]; [10],80
same,"Plant response rating, Windgrass",[4]; [11],5
same,"Plant response rating, Windgrass",[4]; [12],10
same,"Plant response rating, Windgrass",[4]; [13],35
same,Plant response rating: Oilseed Rape,[5]; [8],50
same,Plant response rating: Oilseed Rape,[5]; [9],70
same,Plant response rating: Oilseed Rape,[5]; [10],100
same,"Plant response rating, Oilseed Rape",[5]; [11],0
same,"Plant response rating, Oilseed Rape",[5]; [12],50
same,"Plant response rating: Bromegrass, Downy",[6]; [8],5
same,"Plant response rating: Bromegrass, Downy",[6]; [9],10
same,"Plant response rating: Bromegrass, Downy",[6]; [10],10
same,"Plant response rating, Bromegrass, Downy",[6]; [11],5
same,"Plant response rating, Bromegrass, Downy",[6]; [12],5
same,"Plant response rating, Foxtail, Green",[7]; [8],98
same,"Plant response rating, Foxtail, Green",[7]; [9],100
same,"Plant response rating, Foxtail, Green",[7]; [10],100
same,"Plant response rating, Foxtail, Green","[7]; Postemergence, 250 g ai/ha, scale 0 to 100",100
same,"Plant response rating, Foxtail, Green",[7]; [14],90
same,"Plant response rating, Foxtail, Green",[7]; [15],90
same,"Plant response rating, Foxtail, Green",[7]; [16],90
same,"Plant response rating, Foxtail, Green",[7]; [17],90
Cc1nn(-c2ccc(F)c(C(F)(F)F)c2)nc1Oc1ccnc(C(F)(F)F)c1 [Compound 147],Plant response rating: Field Poppy,[1]; [8],90
same,Plant response rating: Field Poppy,[1]; [9],100
same,Plant response rating: Field Poppy,[1]; [10],100
same,"Plant response rating, Field Poppy",[1]; [12],90
same,"Plant response rating, Field Poppy",[1]; [18],55
same,"Plant response rating, Field Poppy",[1]; [19],75
same,"Plant response rating, Field Poppy",[1]; [20],95
same,"Plant response rating, Field Poppy",[1]; [21],100
same,"Plant response rating: Barley, Winter",[2]; [8],20
same,"Plant response rating: Barley, Winter",[2]; [9],25
same,"Plant response rating: Barley, Winter",[2]; [10],30
same,"Plant response rating, Barley, Winter",[2]; [12],15
same,"Plant response rating, Barley, Winter",[2]; [18],0
same,"Plant response rating, Barley, Winter",[2]; [19],0
same,"Plant response rating, Barley, Winter",[2]; [20],5
same,"Plant response rating, Barley, Winter",[2]; [21],15
same,Plant response rating: Bluegrass,[3]; [8],10
same,Plant response rating: Bluegrass,[3]; [9],55
same,Plant response rating: Bluegrass,[3]; [10],70
same,"Plant response rating, Bluegrass",[3]; [12],5
same,"Plant response rating, Bluegrass",[3]; [18],0
same,"Plant response rating, Bluegrass",[3]; [19],15
same,"Plant response rating, Bluegrass",[3]; [20],20
same,"Plant response rating, Bluegrass",[3]; [21],35
same,Plant response rating: Windgrass,[4]; [9],50
same,Plant response rating: Windgrass,[4]; [10],75
same,"Plant response rating, Windgrass",[4]; [12],15
same,"Plant response rating, Windgrass",[4]; [13],25
same,"Plant response rating, Windgrass",[4]; [18],0
same,"Plant response rating, Windgrass",[4]; [19],60
same,"Plant response rating, Windgrass",[4]; [20],100
same,"Plant response rating, Windgrass",[4]; [21],100
same,Plant response rating: Oilseed Rape,[5]; [8],60
same,Plant response rating: Oilseed Rape,[5]; [9],95
same,Plant response rating: Oilseed Rape,[5]; [10],100
same,"Plant response rating, Oilseed Rape",[5]; [12],25
same,"Plant response rating, Oilseed Rape",[5]; [18],0
same,"Plant response rating, Oilseed Rape",[5]; [19],0
same,"Plant response rating, Oilseed Rape",[5]; [20],5
same,"Plant response rating, Oilseed Rape",[5]; [21],15
same,"Plant response rating: Bromegrass, Downy",[6]; [8],5
same,"Plant response rating: Bromegrass, Downy",[6]; [9],15
same,"Plant response rating: Bromegrass, Downy",[6]; [10],50
same,"Plant response rating, Bromegrass, Downy",[6]; [12],5
same,"Plant response rating, Bromegrass, Downy",[6]; [18],0
same,"Plant response rating, Bromegrass, Downy",[6]; [19],5
same,"Plant response rating, Bromegrass, Downy",[6]; [20],10
same,"Plant response rating, Bromegrass, Downy",[6]; [21],15
same,"Plant response rating, Foxtail, Green",[7]; [14],95
same,"Plant response rating, Foxtail, Green",[7]; [15],95
same,"Plant response rating, Foxtail, Green",[7]; [16],95
same,"Plant response rating, Foxtail, Green",[7]; [17],95
